Measured values taken from US20230263822A1, “MODULATION OF FACTOR 11 EXPRESSION” (Ionis Pharmaceuticals, Inc., priority 2008, published 2023).
e = 2'-O-(2-methoxyethyl) (MOE); d = 2'-deoxy (DNA)

Tests used:
[1] = tested on: human Factor 11 mRNA; experiment: Antisense inhibition of human Factor 11 in HepG2 cells, lipofectin, 75 nM (Example 1); format: cell-based; conditions: 75 nM antisense oligonucleotide, ~24 h, relative to untreated control cells, gapmers targeted to SEQ ID NO: 1
Outline: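 HepG2 cells transfected via lipofectin with 75 nM antisense oligonucleotide (5-10-5 MOE gapmers, 20-mers, phosphorothioate, 5-methylcytidines), treated ~24 h. Factor 11 mRNA quantified by real-time PCR, normalised to RIBOGREEN total RNA; percent inhibition versus untreated cells.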

[2] = design: species or system Sprague-Dawley rats; conditions: rat, in vivo, sc, 20 mg/kg
Procedure: The concentration of the full-length oligonucleotide as well as the total oligonucleotide concentration (including the degraded form) was measured. The method used is a modification of previously published methods (Leeds et al., 1996; Geary et al., 1999) which consist of a phenol-chloroform (liquid-liquid) extraction followed by a solid phase extraction. An internal standard (ISIS 355868, a 27-mer 2′-O-methoxyethyl modified phosphorothioate oligonucleotide, […], designated herein as SEQ ID NO: 270) was added prior to extraction. […] The results are presented in Tables 91 and 92, expressed as μg/g liver or kidney tissue. Half-lives were then calculated using WinNonlin software ([…]).

[3] = tested on: human Factor 11 mRNA; experiment: Antisense inhibition of human Factor 11 in HepG2 cells, electroporation, 8,000 nM (Example 30); format: cell-based; conditions: electroporation, 8,000 nM antisense oligonucleotide
Outline: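 HepG2 cells electroporated with 8,000 nM 5-10-5, 5-8-5 or 6-8-6 MOE gapmers (phosphorothioate, 5-methylcytidine), ~24 h. Factor 11 mRNA quantified by qRT-PCR, normalised to RIBOGREEN total RNA. Reported as percent inhibition versus untreated cells.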

[4] = Viscosity of ISIS antisense oligonucleotides, micro-viscometer at 25 °C (Example 47); format: physicochemical; conditions: for Concentration: concentration of the viscosity sample, UV reading at 260 nM at 85° C.; for Viscosity: in water, micro-viscometer at 25° C., at the concentration of the same line
Procedure: The viscosity of antisense oligonucleotides targeting human Factor 11 was measured with the aim of screening out antisense oligonucleotides which have a viscosity more than 40 cP at a concentration of 165-185 mg/mL.
ISIS oligonucleotides (32-35 mg) were weighed into a glass vial, 120 μL of water was added and the antisense oligonucleotide was dissolved into solution by heating the vial at 50° C. Part of (75 μL) the pre-heated sample was pipetted to a micro-viscometer (Cambridge). The temperature of the micro-viscometter was set to 25° C. and the viscosity of the sample was measured. Another part (20 μL) of the pre-heated sample was pipetted into 10 mL of water for UV reading at 260 nM at 85° C. (Cary UV instrument).

[5] = design: species or system CD1 mice; conditions: mouse, in vivo, sc, 50 mg/kg
Procedure: The concentration of the full-length oligonucleotide was measured. The method used is a modification of previously published methods (Leeds et al., 1996; Geary et al., 1999) which consist of a phenol-chloroform (liquid-liquid) extraction followed by a solid phase extraction. An internal standard (ISIS 355868, a 27-mer 2′-O-methoxyethyl modified phosphorothioate oligonucleotide, […], designated herein as SEQ ID NO: 270) was added prior to extraction. […] The results are presented in Table 85 expressed as μg/g liver tissue.

[6] = tested on: human Factor 11 mRNA; experiment: Dose-dependent antisense inhibition of human Factor 11 in HepG2 cells, lipofectin 9.375-150 nM (Example 2); format: cell-based; conditions: ~16 h
Procedure: Cells were plated at a density of 10,000 cells per well and transfected using lipofectin reagent with 9.375 nM, 18.75 nM, 37.5 nM, 75 nM, and 150 nM concentrations of antisense oligonucleotide, as specified in Table 3. After a treatment period of approximately 16 hours, RNA was isolated from the cells and Factor 11 mRNA levels were measured by quantitative real-time PCR. Human Factor 11 primer probe set RTS 2966 (forward sequence: […], incorporated herein as SEQ ID NO: 3; reverse sequence: […], incorporated herein as SEQ ID NO: 4; probe sequence: TTGTCTACTGAAGCACACCCAAACAGGGAX, incorporated herein as SEQ ID NO: 5) was used to measure mRNA levels. Factor 11 mRNA levels were adjusted according to total RNA content, as measured by RIBOGREEN. Results are presented as percent inhibition of Factor 11, relative to untreated control cells.

[7] = tested on: human Factor 11 mRNA; experiment: Antisense inhibition of human Factor 11 in HepG2 cells by microwalk gapmers, lipofectin, 75 nM (Example 3); format: cell-based; conditions: HepG2 cells, lipofectin, gapmers targeted to nucleobases 1275 to 1318 of SEQ ID NO: 1
Outline: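 HepG2 cells (10,000/well) were transfected via lipofectin with 75 nM 20-mer MOE gapmers (phosphorothioate, 5-methyl-C) for about 24 h. Factor 11 mRNA was measured by qRT-PCR, normalized to RIBOGREEN total RNA, and given as percent inhibition versus untreated cells.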

[8] = tested on: human Factor 11 mRNA; experiment: Dose-dependent inhibition of human Factor 11 in HepG2 cells, electroporation 123.46-10,000 nM (Example 31); format: cell-based; conditions: for Percent inhibition of Factor 11 mRNA at 123.47 nM / Percent inhibition of Factor 11 mRNA at 370.37 nM / IC50: electroporation; for Percent inhibition of Factor 11 mRNA at 123.47 nM / Percent inhibition of Factor 11 mRNA at 370.37 nM / Percent inhibition of Factor 11 mRNA at 1,111.11 nM / Percent inhibition of Factor 11 mRNA at 3,333.33 nM / Percent inhibition of Factor 11 mRNA at 10,000.0 nM: approx. 16 hours, relative to untreated control cells; for Percent inhibition of Factor 11 mRNA at 1,111.11 nM: electroporation, 1,111.11 nM; for Percent inhibition of Factor 11 mRNA at 3,333.33 nM: electroporation, 3,333.33 nM; for Percent inhibition of Factor 11 mRNA at 10,000.0 nM: electroporation, 10,000.0 nM; for IC50: Factor 11 mRNA expression
Outline: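 HepG2 cells were electroporated with antisense oligonucleotide at 123.46, 370.37, 1,111.11, 3,333.33 and 10,000 nM and harvested about 16 hours later. Factor 11 mRNA was quantified by qRT-PCR and normalised to total RNA (RIBOGREEN). Inhibition is expressed relative to untreated cells.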

[9] = rat, in vivo, sc, 50 mg/kg
[10] = rat, in vivo, sc, 50 mg/kg; remark: listed apart in the source
[11] = rat, in vivo, sc, 50 mg/kg; remark: listed apart in the source

Row | Substance | Half-life of ISIS oligonucleotides in the liver and kidney [2] | Percent inhibition of human Factor 11 mRNA levels [3] | Concentration [4] | Viscosity [4] | Half-Life in the liver [5] | % inhibition [7] | also measured
1 | 413481 (antisense GGTGCACAGTTTCTGGCAGG; 5-10-5 MOE gapmer, further chemistry not given here) [compound 413481] | 21 days | 82% | 144 mg/mL | 23 cP | 20.6 days |  | % inhibition [1]: 86%; percent inhibition of Factor 11 at 9.375 nM ([6]; 9.375 nM): 22%; percent inhibition of Factor 11 at 18.75 nM ([6]; 18.75 nM): 38%; percent inhibition of Factor 11 at 37.5 nM ([6]; 37.5 nM): 56%; percent inhibition of Factor 11 at 75 nM ([6]; 75 nM): 67%; percent inhibition of Factor 11 at 150 nM ([6]; 150 nM): 83%; IC50 [6]: 32 nM
2 | 416848 (antisense CACAGTTTCTGGCAGGCCTC; 5-10-5 gapmer, further chemistry not given here) [compound 416848] | 24 days | 87% | 158 mg/mL | 6 cP | 23.5 days | 86% | 
3 | 416851 (antisense GTGCACAGTTTCTGGCAGGC; 5-10-5 gapmer, further chemistry not given here) [compound 416851] | 24 days | 89% | 187 mg/mL | 26 cP | 23.8 days | 88% | Percent inhibition of Factor 11 mRNA at 123.47 nM [8]: 13%; Percent inhibition of Factor 11 mRNA at 370.37 nM [8]: 35%; Percent inhibition of Factor 11 mRNA at 1,111.11 nM [8]: 36%; Percent inhibition of Factor 11 mRNA at 3,333.33 nM [8]: 64%; Percent inhibition of Factor 11 mRNA at 10,000.0 nM [8]: 72%; IC50 [8]: 1500 nM
4 | 416852 (antisense TGGTGCACAGTTTCTGGCAG; 5-10-5 gapmer, further chemistry not given here) [compound 416852] | 28 days | 87% | 169 mg/mL | 29 cP | 28.4 days | 84% | 
5 | 416859 (antisense GACGGCATTGGTGCACAGTT; 5-10-5 gapmer, further chemistry not given here) [compound 416859] | 19 days | 85% | 161 mg/mL | 10 cP | 19.0 days | 90% | 
6 | 416860 (antisense CGGACGGCATTGGTGCACAG; 5-10-5 gapmer, further chemistry not given here) [compound 416860] | 21 days | 89% | 154 mg/mL | >100 cP | 20.6 days | 88% | Percent inhibition of Factor 11 mRNA at 123.47 nM [8]: 0%; Percent inhibition of Factor 11 mRNA at 370.37 nM [8]: 28%; Percent inhibition of Factor 11 mRNA at 1,111.11 nM [8]: 39%; Percent inhibition of Factor 11 mRNA at 3,333.33 nM [8]: 41%; Percent inhibition of Factor 11 mRNA at 10,000.0 nM [8]: 40%
7 | 416861 (antisense GCGGACGGCATTGGTGCACA; 5-10-5 gapmer, further chemistry not given here) [compound 416861] | 25 days | 90% | 110 mg/mL | 14 cP | 24.5 days | 92% | Percent inhibition of Factor 11 mRNA at 123.47 nM [8]: 0%; Percent inhibition of Factor 11 mRNA at 370.37 nM [8]: 15%; Percent inhibition of Factor 11 mRNA at 1,111.11 nM [8]: 27%; Percent inhibition of Factor 11 mRNA at 3,333.33 nM [8]: 66%; Percent inhibition of Factor 11 mRNA at 10,000.0 nM [8]: 80%; IC50 [8]: 2000 nM
8 | 416863 (antisense CAGCGGACGGCATTGGTGCA; 5-10-5 gapmer, further chemistry not given here) [compound 416863] | 20 days | 86% | 165 mg/mL | 9 cP | 19.8 days | 83% | 
9 | 416866 (antisense CTGGCAGCGGACGGCATTGG; 5-10-5 gapmer, further chemistry not given here) [compound 416866] | 16 days | 84% | 166 mg/mL | >100 cP | 16.0 days | 88% | 
10 | 416867 (antisense ACTGGCAGCGGACGGCATTG; 5-10-5 gapmer, further chemistry not given here) [compound 416867] | 19 days | 85% | 168 mg/mL | 8 cP | 18.9 days | 83% | 
11 | ISIS 416825: 5-10-5 MOE gapmer GCCCTTCATGTCTAGGTCCA (sugars from the 5' end e5 d10 e5, backbone and methylation of C not given here) |  |  |  |  |  |  | HCT [9]: 2%; MCH [9]: 2; MCHC [9]: 4%; MCV [9]: 4; Platelets [9]: 6 10^3/μL; RBC [9]: 2; WBC [9]: 22 nL⁻¹; hemoglobin [9]: 2 g/dL; lymphocytes [9]: 3%; monocytes [9]: 15%; neutrophils [9]: 25%; ALT [10]: 89 IU/L; AST [10]: 17 IU/L; Albumin [10]: 2; Bilirubin [10]: 4 mg/dL; BUN [11]: 7 mg/dL; Creatinine [11]: 17 mg/dL
